According to PubChem BioAssay AID1963958 (Molecular Pharmacology Branch, DTP, NCI, 2024):

System: MDA-MB-231 multicell spheroids, viability
Experiment: Anticancer human tumor MDA-MB-231 cell line growth inhibition [PI3K];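 further: spheroids exposed to agents for seven days before reading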;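 on viability, T/C: percent of vehicle control luminescence with DMSO treated spheroids as 100%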
Details: for IC50: curve of first compound; for viability, T/C: stronger effect = lower value
In short: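 Tumor cells were combined with HUVEC and MSCs into spheroids, then dosed with PI3K-inhibitor combinations over half-log ranges capped near clinical Cmax or 10 microM.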

[1] = second compound 0.00316 µM, first compound 0.0316 µM
[2] = second compound 0.00316 µM, first compound 0.1 µM
[3] = second compound 0.00316 µM, first compound 0.316 µM
[4] = second compound 0.00316 µM, first compound 1 µM
[5] = second compound 0.00316 µM, first compound 3.16 µM
[6] = second compound 0.00316 µM, first compound 10 µM
[7] = second compound 0.01 µM, first compound 0.0316 µM
[8] = second compound 0.01 µM, first compound 0.1 µM
[9] = second compound 0.01 µM, first compound 0.316 µM
[10] = second compound 0.01 µM, first compound 1 µM
[11] = second compound 0.01 µM, first compound 3.16 µM
[12] = second compound 0.01 µM, first compound 10 µM
[13] = second compound 0.0316 µM, first compound 0.0316 µM
[14] = second compound 0.0316 µM, first compound 0.1 µM
[15] = second compound 0.0316 µM, first compound 0.316 µM
[16] = second compound 0.0316 µM, first compound 1 µM
[17] = second compound 0.0316 µM, first compound 3.16 µM
[18] = second compound 0.0316 µM, first compound 10 µM
[19] = second compound 0.1 µM, first compound 0.0316 µM
[20] = second compound 0.1 µM, first compound 0.1 µM
[21] = second compound 0.1 µM, first compound 0.316 µM
[22] = second compound 0.1 µM, first compound 1 µM
[23] = second compound 0.1 µM, first compound 3.16 µM
[24] = second compound 0.1 µM, first compound 10 µM
[25] = second compound 0.316 µM, first compound 0.0316 µM
[26] = second compound 0.316 µM, first compound 0.1 µM
[27] = second compound 0.316 µM, first compound 0.316 µM
[28] = second compound 0.316 µM, first compound 1 µM
[29] = second compound 0.316 µM, first compound 3.16 µM
[30] = second compound 0.316 µM, first compound 10 µM
[31] = second compound 1 µM, first compound 0.0316 µM
[32] = second compound 1 µM, first compound 0.1 µM
[33] = second compound 1 µM, first compound 0.316 µM
[34] = second compound 1 µM, first compound 1 µM
[35] = second compound 1 µM, first compound 3.16 µM
[36] = second compound 1 µM, first compound 10 µM

CC(C)NCC(C(=O)N1CCN(c2ncnc3c2C(C)CC3O)CC1)c1ccc(Cl)cc1 (stereo unspecified) + COc1c(OCCCN2CCOCC2)ccc2c3n(c(=NC(=O)c4cnc(N)nc4)nc12)CCN3
IC50 (second compound 0.00316 µM): 7260 nM
IC50 (second compound 0.01 µM): 4830 nM
IC50 (second compound 0.0316 µM): 1840 nM
IC50 (second compound 0.1 µM): < 31.6 nM
IC50 (second compound 0.316 µM): < 31.6 nM
IC50 (second compound 1 µM): < 31.6 nM
viability, T/C [1]: 96.1%
viability, T/C [2]: 93.7%
viability, T/C [3]: 83.5%
viability, T/C [4]: 74.6%
viability, T/C [5]: 59.3%
viability, T/C [6]: 46.3%
viability, T/C [7]: 81.8%
viability, T/C [8]: 81.4%
viability, T/C [9]: 69.2%
viability, T/C [10]: 62.6%
viability, T/C [11]: 54.7%
viability, T/C [12]: 43.4%
viability, T/C [13]: 61.6%
viability, T/C [14]: 59.1%
viability, T/C [15]: 55.8%
viability, T/C [16]: 56.3%
viability, T/C [17]: 45.6%
viability, T/C [18]: 33.9%
viability, T/C [19]: 48.5%
viability, T/C [20]: 48.7%
viability, T/C [21]: 45.6%
viability, T/C [22]: 39.3%
viability, T/C [23]: 37.9%
viability, T/C [24]: 28.9%
viability, T/C [25]: 32.9%
viability, T/C [26]: 34%
viability, T/C [27]: 31.2%
viability, T/C [28]: 30.1%
viability, T/C [29]: 25.5%
viability, T/C [30]: 18.7%
viability, T/C [31]: 23.8%
viability, T/C [32]: 23.7%
viability, T/C [33]: 24.9%
viability, T/C [34]: 23%
viability, T/C [35]: 24.8%
viability, T/C [36]: 18.8%

CCN1CCN(Cc2ccc(Nc3ncc(F)c(-c4cc(F)c5nc(C)n(C(C)C)c5c4)n3)nc2)CC1 + COc1c(OCCCN2CCOCC2)ccc2c3n(c(=NC(=O)c4cnc(N)nc4)nc12)CCN3
IC50 (second compound 0.00316 µM): 195 nM
IC50 (second compound 0.01 µM): 65.4 nM
IC50 (second compound 0.0316 µM): 8.45 nM
IC50 (second compound 0.1 µM): < 3.16 nM
IC50 (second compound 0.316 µM): < 3.16 nM
IC50 (second compound 1 µM): < 3.16 nM
viability, T/C (second compound 0.00316 µM, first compound 0.00316 µM): 89%
viability, T/C (second compound 0.00316 µM, first compound 0.01 µM): 79.4%
viability, T/C [1]: 72.3%
viability, T/C [2]: 52.1%
viability, T/C [3]: 47.7%
viability, T/C [4]: 45.1%
viability, T/C (second compound 0.01 µM, first compound 0.00316 µM): 77.8%
viability, T/C (second compound 0.01 µM, first compound 0.01 µM): 66.2%
viability, T/C [7]: 57.2%
viability, T/C [8]: 46.5%
viability, T/C [9]: 39.7%
viability, T/C [10]: 40.2%
viability, T/C (second compound 0.0316 µM, first compound 0.00316 µM): 56%
viability, T/C (second compound 0.0316 µM, first compound 0.01 µM): 50.9%
viability, T/C [13]: 43.9%
viability, T/C [14]: 38.4%
viability, T/C [15]: 35.9%
viability, T/C [16]: 39.6%
viability, T/C (second compound 0.1 µM, first compound 0.00316 µM): 45.1%
viability, T/C (second compound 0.1 µM, first compound 0.01 µM): 40%
viability, T/C [19]: 33.4%
viability, T/C [20]: 27.9%
viability, T/C [21]: 31%
viability, T/C [22]: 38.1%
viability, T/C (second compound 0.316 µM, first compound 0.00316 µM): 30%
viability, T/C (second compound 0.316 µM, first compound 0.01 µM): 27.2%
viability, T/C [25]: 24.1%
viability, T/C [26]: 22.4%
viability, T/C [27]: 28%
viability, T/C [28]: 42.7%
viability, T/C (second compound 1 µM, first compound 0.00316 µM): 24.6%
viability, T/C (second compound 1 µM, first compound 0.01 µM): 22.5%
viability, T/C [31]: 22.4%
viability, T/C [32]: 25.5%
viability, T/C [33]: 43.7%
viability, T/C [34]: 83.2%

Cn1ncc(Cl)c1-c1cc(C(=O)NC(CN)Cc2cccc(F)c2)sc1Cl (stereo unspecified) + COc1c(OCCCN2CCOCC2)ccc2c3n(c(=NC(=O)c4cnc(N)nc4)nc12)CCN3
IC50 (second compound 0.00316 µM): 2620 nM
IC50 (second compound 0.01 µM): 2080 nM
IC50 (second compound 0.0316 µM): 1040 nM
IC50 (second compound 0.1 µM): < 31.6 nM
IC50 (second compound 0.316 µM): < 31.6 nM
IC50 (second compound 1 µM): < 31.6 nM
viability, T/C [1]: 99.2%
viability, T/C [2]: 93.8%
viability, T/C [3]: 84.5%
viability, T/C [4]: 72%
viability, T/C [5]: 44.6%
viability, T/C [6]: 25.7%
viability, T/C [7]: 78.6%
viability, T/C [8]: 83.1%
viability, T/C [9]: 74.2%
viability, T/C [10]: 63.7%
viability, T/C [11]: 42.3%
viability, T/C [12]: 25.4%
viability, T/C [13]: 60.2%
viability, T/C [14]: 61.5%
viability, T/C [15]: 60.8%
viability, T/C [16]: 48.9%
viability, T/C [17]: 34.8%
viability, T/C [18]: 19.6%
viability, T/C [19]: 48.2%
viability, T/C [20]: 47.5%
viability, T/C [21]: 46%
viability, T/C [22]: 40.7%
viability, T/C [23]: 29.9%
viability, T/C [24]: 17.4%
viability, T/C [25]: 32.5%
viability, T/C [26]: 33.6%
viability, T/C [27]: 29.9%
viability, T/C [28]: 29.2%
viability, T/C [29]: 20.9%
viability, T/C [30]: 13.9%
viability, T/C [31]: 25.8%
viability, T/C [32]: 24.8%
viability, T/C [33]: 24.4%
viability, T/C [34]: 23.4%
viability, T/C [35]: 22.2%
viability, T/C [36]: 20.8%
